These results are taken from ChEMBL document CHEMBL1156290, “Identification of amide bioisosteres of triazole oxytocin antagonists” (Bioorg Med Chem Lett, 2010).

Some results are limits rather than exact numbers.

Holding throughout (type): functional
Test [1] has as its target T1, Oxytocin receptor (Homo sapiens, UniProt P30559).
T1 sequence (P30559 whole entry): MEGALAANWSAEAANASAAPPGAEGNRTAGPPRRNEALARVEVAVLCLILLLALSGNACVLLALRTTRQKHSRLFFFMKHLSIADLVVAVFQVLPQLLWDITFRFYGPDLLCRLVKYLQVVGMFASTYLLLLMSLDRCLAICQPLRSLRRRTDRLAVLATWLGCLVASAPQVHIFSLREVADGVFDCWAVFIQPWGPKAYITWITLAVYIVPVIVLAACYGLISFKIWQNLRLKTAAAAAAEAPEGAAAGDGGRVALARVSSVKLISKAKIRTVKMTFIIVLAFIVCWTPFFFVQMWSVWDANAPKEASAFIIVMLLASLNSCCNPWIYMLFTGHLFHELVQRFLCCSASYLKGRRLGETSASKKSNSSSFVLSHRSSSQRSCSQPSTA
The test is described as follows: Antagonist activity at human cloned OT receptor by cell based beta-lactamase reporter gene assay. A general note: A reporter such as luciferase makes a cellular process visible.

Test [2] has as its target Vasopressin V1a receptor (Homo sapiens, UniProt P37288). The test is described as follows: Antagonist activity at human cloned vasopressin V1A receptor by cell based beta-lactamase reporter gene assay.
Test [3] concerns the target Vasopressin V2 receptor (Homo sapiens, UniProt P30518). Nature of the test: Antagonist activity at human cloned vasopressin V2 receptor by cell based beta-lactamase reporter gene assay.
The target of test [4] is T2, Vasopressin V1b receptor (Homo sapiens) (UniProt P47901).
T2 sequence (whole entry): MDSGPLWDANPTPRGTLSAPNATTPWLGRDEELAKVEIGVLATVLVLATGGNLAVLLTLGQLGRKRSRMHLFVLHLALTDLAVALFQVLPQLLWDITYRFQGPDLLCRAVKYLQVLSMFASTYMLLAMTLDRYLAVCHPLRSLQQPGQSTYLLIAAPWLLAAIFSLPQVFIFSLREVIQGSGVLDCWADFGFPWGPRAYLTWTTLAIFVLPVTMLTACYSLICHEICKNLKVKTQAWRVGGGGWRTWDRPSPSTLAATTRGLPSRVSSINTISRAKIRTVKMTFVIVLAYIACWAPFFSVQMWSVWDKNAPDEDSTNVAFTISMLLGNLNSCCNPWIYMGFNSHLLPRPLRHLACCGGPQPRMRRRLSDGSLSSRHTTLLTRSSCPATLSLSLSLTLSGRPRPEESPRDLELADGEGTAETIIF
Nature of the test: Antagonist activity at human cloned vasopressin V1B receptor at 10 uM by cell based beta-lactamase reporter gene assay. Also on record: scale not given: the % may be the effect or the level left.

Vasopressin V1a receptor, sequence (P37288 whole entry): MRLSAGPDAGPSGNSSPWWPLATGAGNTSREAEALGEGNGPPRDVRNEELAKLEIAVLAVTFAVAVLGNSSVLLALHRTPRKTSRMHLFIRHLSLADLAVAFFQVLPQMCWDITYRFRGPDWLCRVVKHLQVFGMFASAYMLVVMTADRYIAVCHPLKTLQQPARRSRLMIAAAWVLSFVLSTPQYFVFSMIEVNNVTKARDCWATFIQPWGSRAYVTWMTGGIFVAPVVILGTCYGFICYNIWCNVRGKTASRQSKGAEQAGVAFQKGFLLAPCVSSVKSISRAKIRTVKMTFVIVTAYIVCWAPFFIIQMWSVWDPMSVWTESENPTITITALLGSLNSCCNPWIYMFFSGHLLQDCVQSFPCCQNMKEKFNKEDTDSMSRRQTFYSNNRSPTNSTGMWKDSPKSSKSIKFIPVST
Vasopressin V2 receptor, sequence (P30518 whole entry): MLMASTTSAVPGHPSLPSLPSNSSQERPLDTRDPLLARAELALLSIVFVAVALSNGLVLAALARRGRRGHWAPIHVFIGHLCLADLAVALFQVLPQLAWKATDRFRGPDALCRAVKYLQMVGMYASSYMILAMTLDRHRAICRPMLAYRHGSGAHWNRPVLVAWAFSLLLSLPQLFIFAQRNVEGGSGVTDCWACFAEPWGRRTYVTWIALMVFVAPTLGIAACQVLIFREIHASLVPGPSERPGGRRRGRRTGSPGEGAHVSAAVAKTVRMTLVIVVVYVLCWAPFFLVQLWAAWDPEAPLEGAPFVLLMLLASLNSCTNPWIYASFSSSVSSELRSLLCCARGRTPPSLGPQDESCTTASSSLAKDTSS

Broadly, the Ki is a measure of affinity in units of concentration, obtained from inhibition or displacement. In turn, `CCN(C(=O)c1ccc(-c2ccccc2)[nH]c1=O)c1ccc(OC)nc1` yielded a Ki in test [1] of 97 nM.
Still for that read-out and setting: the same measure for `CCN(C(=O)c1cnn(-c2ccccc2)c1C)c1ccc(OC)nc1`: 85 nM.
With `COc1ccc(N(C)C(=O)c2cnc(-c3ccc(F)cc3C)cn2)cn1`, the Ki in test [1] was 218 nM; in test [2] it was 2000 nM.
Take `CCN(C(=O)c1cc(-c2ccc(C)cc2)n[nH]1)c1ccc(OC)nc1`: in test [1], the affinity corresponds to a Ki of 41 nM.
Turning to `COCCN(C(=O)c1cnc(-c2ccccc2C)cn1)c1ccc(OC)nc1`, the Ki in test [1] is 115 nM; in test [2] it was 3300 nM; in test [3], more than 10000 nM.
In test [1], `COc1ccc(N(C)C(=O)c2ccc(-c3ccccc3)cc2)cn1` returned a Ki of 90 nM.
Still for that read-out and setting: the same measure for `CCN(C(=O)COc1ccc(C(C)C)cc1)c1ccc(OC)nc1`: 251 nM.
Take `CCN(C(=O)c1cnc(-c2cccc(C)c2C)cn1)c1ccc(OC)nc1`: the Ki was determined as 25 nM in test [1], 472 nM in test [2] and 2830 nM in test [3]. This molecule also gave an Activity in test [4] of less than 20%.
Consider `COc1ccc(N(C(=O)c2cnc(-c3cccc(C)c3C)cn2)C(C)C)cn1`, for which the Ki in test [1] was 14 nM; in test [2] it was more than 10000 nM; in test [3], 2300 nM.
`CCN(C(=O)c1cnn(-c2ccc(OC)cc2)c1C)c1ccc(OC)nc1`: affinity in test [1] was put at a Ki of 91 nM.
Regarding `COc1ccc(N(C(=O)c2cnc(-c3ccccc3C)cn2)C(C)C)cn1`, the Ki in test [1] was 150 nM; in test [2] it was more than 10000 nM; in test [3], more than 10000 nM.
Regarding `COc1ccc2oc(C(=O)N(C)c3ccc(OC)nc3)cc2c1`, in test [1], the affinity corresponds to a Ki of 232 nM.
For `CCN(C(=O)c1cnc(-c2cccc(F)c2C)cn1)c1ccc(OC)nc1`, the Ki in test [1] was 29 nM; in test [2], 5900 nM; in test [3] it was 343 nM.
On to `CCN(C(=O)c1ccc(-c2ccc(OC)cc2)[nH]c1=O)c1ccc(OC)nc1`, for which the Ki in test [1] was determined as 84 nM.
Same read-out and setting: under `CCN(C(=O)COc1ccc2ccccc2c1)c1ccc(OC)nc1` stands 48 nM.
Consider `COc1ccc(N(C)C(=O)c2cnc(-c3ccccc3C)cn2)cn1`, for which the results for the Ki in test [1], in test [2] and in test [3] were 92 nM, 1100 nM and more than 10000 nM, respectively.
Turning to `COc1ccc(N(C)C(=O)c2cnc(-c3ccc(C#N)cc3C)cn2)cn1`, the inhibition constant (Ki) in test [1] is 620 nM; in test [2], more than 10000 nM; in test [3] it was more than 10000 nM.
As to `CCN(C(=O)c1cnc(-c2ccccc2C)cn1)c1ccc(OC)nc1`, the Ki in test [1] is 129 nM; in test [2], 2300 nM; in test [3], more than 10000 nM.
On to `COCCN(C(=O)c1cnc(-c2cccc(C)c2C)cn1)c1ccc(OC)nc1`, for which the Ki amounted to 11 nM in test [1], 539 nM in test [2] and 2400 nM in test [3]. The molecule also registered an Activity in test [4] of less than 20%.
Molecule `COCCN(C(=O)c1cnn(-c2ccccc2)c1C)c1ccc(OC)nc1` had a Ki in test [1] of 98 nM.
Regarding `CCN(C(=O)c1cnc(-c2ccc(C#N)cc2C)cn1)c1ccc(OC)nc1`, the Ki in test [1] was 393 nM; in test [2] it was 7200 nM; in test [3], more than 10000 nM.
In turn, `CCN(C(=O)c1cc2cc(OC)ccc2o1)c1ccc(OC)nc1` returned a Ki in test [1] of 85 nM.
On to `COCCN(C(=O)c1cnc(-c2ccc(C#N)cc2C)cn1)c1ccc(OC)nc1`, for which the Ki was 433 nM in test [1], 12000 nM in test [2] and more than 10000 nM in test [3].
